Measured values taken from patent publication US10206388B2, “Formulation component” (SYNGENTA LIMITED, priority 2011, dated 2019).

Key:
Format in all cases: in vivo
[1] = tested on: Abutilon theophrasti (ABUTH); experiment: Glasshouse weed test, fomesafen with adjuvants; conditions: Table 8, Example 6: fomesafen 60 or 120 g/ha; adjuvant 0.2% v/v; mean over two rates, three replicates, 7, 14 and 20 days
Protocol: (§1) The aromatic ester Finsolv® TN (C12-C15 alkyl benzoate) was tested in a glasshouse against four weed species using the herbicide fomesafen. An agrochemical composition was prepared containing 0.2% v/v of the adjuvant in a track sprayer and was applied at a volume of 200 liters per hectare. Fomesafen was applied at either 60 or 120 grams of pesticide per hectare on each of the weed species. The weed species and their growth stage at spraying were Chenopodium album (CHEAL; growth stage 14), Abutilon theophrasti (ABUTH; growth stage 12), Setaria viridis (SETVI; growth stage 13), and Xanthium strumarium (XANST; growth stage 12).
(§2) Each spray test was replicated three times. The efficacy of the herbicide was assessed visually and expressed as a percentage of the leaf area killed. Samples were assessed at time periods of 7, 14 and 20 days following application. The results shown in Table 8 below are mean averages over the two rates of fomesafen, three replicates and the three assessment timings, and are compared to the efficacy of fomesafen in the absence of an adjuvant, and fomesafen in the presence of the commercially available adjuvant Turbocharge®.

[2] = tested on: Chenopodium album (CHEAL); experiment: Glasshouse weed test, fomesafen with adjuvants; conditions: Table 8, Example 6: fomesafen 60 or 120 g/ha; adjuvant 0.2% v/v; mean over two rates, three replicates, 7, 14 and 20 days
Protocol: as §1, §2

Setaria viridis (SETVI) = experiment: Glasshouse weed test, fomesafen with adjuvants; conditions: Table 8, Example 6: fomesafen 60 or 120 g/ha; adjuvant 0.2% v/v; mean over two rates, three replicates, 7, 14 and 20 days
Protocol: as §1, §2

[3] = tested on: Xanthium strumarium (XANST); experiment: Glasshouse weed test, fomesafen with adjuvants; conditions: Table 8, Example 6: fomesafen 60 or 120 g/ha; adjuvant 0.2% v/v; mean over two rates, three replicates, 7, 14 and 20 days
Protocol: as §1, §2

[4] = tested on: four weed species (CHEAL, ABUTH, SETVI, XANST); experiment: Glasshouse weed test, fomesafen with adjuvants, mean across species; conditions: adjuvant 0.2% v/v, mean over two rates
Protocol: as §1, §2
A second experiment was conducted to assess the efficacy of Finsolv® TN as an adjuvant in compositions of fomesafen. This was carried out as outlined above, with the following change: samples were assessed at 6, 14 and 20 days post application.
The results shown in Table 9 below are mean averages over the two rates of fomesafen, three replicates, three assessment timings, and four weed species and are compared to the efficacy of fomesafen in the absence of an adjuvant, and fomesafen in the presence of the commercially available tank-mix adjuvant, Turbocharge®.
An agrochemical composition was prepared containing 0.2% v/v of the adjuvant in a track sprayer and was applied at a volume of 200 liters per hectare. […]
Each spray test was replicated three times. The efficacy of the herbicide was assessed visually and expressed as a percentage of the leaf area killed. Samples were assessed at time periods of 7, 14 and 20 days following application. […]

[5] = tested on: four weed species (POLCO, BRAL, DIGSA, COMBE); experiment: as above; conditions: mean over two rates, three replicates, 14 and 21 days
Protocol: An agrochemical composition was prepared containing 0.2% v/v of the adjuvant in a track sprayer and was applied at a volume of 200 liters per hectare. The adjuvant oils were emulsified using a small amount of the surfactant Pluronic® PE 10500, which was present in the composition at a concentration of 0.02% v/v. Fomesafen was applied at either 60 or 120 grams of pesticide per hectare on each of the weed species. The weed species and their growth stage at spraying were Polygonum convolvulus (POLCO; growth stage 13-14), Brachiaria plantaginea (BRAL; growth stage 13-14), Digitaria sanguinalis (DIGSA; growth stage 14), and Commelina benghalensis (COMBE; growth stage 13-14).
as §2, with “of” for “of 7,”, “21” for “20”, “20” for “8”, “replicates the two assessment timings,” for “replicates”, “four weed species,” for “three assessment timings,”
An agrochemical composition was prepared containing either 0.2, 0.1, 0.05 or 0.025% v/v of the adjuvant in a track sprayer and was applied at a volume of 200 liters per hectare. The commercial adjuvant Turbocharge® was applied at 0.5% v/v. Fomesafen was applied at either 60 or 120 grams of pesticide per hectare on each of the weed species. The weed species and their growth stage at spraying were Polygonum convolvulus (POLCO; growth stage 13-14), Brachiaria plantaginea (BRAL; growth stage 12-13), Digitaria sanguinalis (DIGSA; growth stage 13), and Commelina benghalensis (COMBE; growth stage 12).
as §2, with “of” for “of 7,”, “21” for “20”, “24” for “8”, “replicates the two assessment timings,” for “replicates”, “four weed species,” for “three assessment timings,”, “Turbocharge®. […]” for “Turbocharge®.”
Each spray test was replicated three times. The efficacy of the herbicide was assessed visually and expressed as a percentage of the leaf area killed. Samples were assessed at time periods of 14 and 21 days following application. […]

Structure (SMILES): CS(=O)(=O)NC(=O)c1cc(Oc2ccc(C(F)(F)F)cc2Cl)ccc1[N+](=O)[O-] [Fomesafen, fomesafen]
- Mean percentage kill ABUTH [1]: 19.7 C %
- Mean percentage kill CHEAL [2]: 34.7 C %
- Mean percentage kill SETVI (Setaria viridis (SETVI)): 10.3 B %
- Mean percentage kill XANST [3]: 59.2 C %
- Mean percentage kill, Mean across species ([4]; Table 8, Example 6: fomesafen 60 or 120 g/ha, three replicates, 7, 14 and 20 days): 31.0 C %
- Mean percentage kill, Mean across species ([4]; Table 9, Example 6 second experiment: fomesafen 60 or 120 g/ha, three replicates, 6, 14 and 20 days, four weed species): 44.9 B %
- Mean percentage kill, Mean across species ([4]; Table 15, Example 11: fomesafen 60 or 120 g/ha, three replicates, 7, 14 and 20 days, four weed species): 37.7 C %
- Mean percentage kill, Mean across species ([5]; Table 20, Example 16: fomesafen 60 or 120 g/ha, adjuvant 0.2% v/v emulsified with Pluronic PE 10500 0.02% v/v): 24.3D %
- Mean percentage kill, Mean across species ([5]; Table 24, Example 20: absence of an adjuvant, fomesafen 60 or 120 g/ha): 17.8E %
- Mean percentage kill, Mean across species ([5]; Table 28, Example 25: fomesafen 60 or 120 g/ha, adjuvant 0.2% v/v): 32.8C %
- Mean percentage kill, Mean across species ([5]; Table 34, Example 34: fomesafen 60 or 120 g/ha, adjuvant 0.2% v/v): 17.8B %
